One substance from paper PMC5983484, “A receptor tyrosine kinase ROR1 inhibitor (KAN0439834) induced significant apoptosis of pancreatic cells which was enhanced by erlotinib and ibrutinib” (PLoS ONE, 2018) can be followed below.

The target in this test is ROR1 (Homo sapiens, UniProt Q01973). As to the kind of experiment: Western blot of pROR1 in PaCa-2 cells ([…] h), confirmed by human phospho-RTK array. It counts as cell-based.

A value given as a limit tells only on which side of the number the result lay.

Sequence of ROR1 (Q01973 30-937): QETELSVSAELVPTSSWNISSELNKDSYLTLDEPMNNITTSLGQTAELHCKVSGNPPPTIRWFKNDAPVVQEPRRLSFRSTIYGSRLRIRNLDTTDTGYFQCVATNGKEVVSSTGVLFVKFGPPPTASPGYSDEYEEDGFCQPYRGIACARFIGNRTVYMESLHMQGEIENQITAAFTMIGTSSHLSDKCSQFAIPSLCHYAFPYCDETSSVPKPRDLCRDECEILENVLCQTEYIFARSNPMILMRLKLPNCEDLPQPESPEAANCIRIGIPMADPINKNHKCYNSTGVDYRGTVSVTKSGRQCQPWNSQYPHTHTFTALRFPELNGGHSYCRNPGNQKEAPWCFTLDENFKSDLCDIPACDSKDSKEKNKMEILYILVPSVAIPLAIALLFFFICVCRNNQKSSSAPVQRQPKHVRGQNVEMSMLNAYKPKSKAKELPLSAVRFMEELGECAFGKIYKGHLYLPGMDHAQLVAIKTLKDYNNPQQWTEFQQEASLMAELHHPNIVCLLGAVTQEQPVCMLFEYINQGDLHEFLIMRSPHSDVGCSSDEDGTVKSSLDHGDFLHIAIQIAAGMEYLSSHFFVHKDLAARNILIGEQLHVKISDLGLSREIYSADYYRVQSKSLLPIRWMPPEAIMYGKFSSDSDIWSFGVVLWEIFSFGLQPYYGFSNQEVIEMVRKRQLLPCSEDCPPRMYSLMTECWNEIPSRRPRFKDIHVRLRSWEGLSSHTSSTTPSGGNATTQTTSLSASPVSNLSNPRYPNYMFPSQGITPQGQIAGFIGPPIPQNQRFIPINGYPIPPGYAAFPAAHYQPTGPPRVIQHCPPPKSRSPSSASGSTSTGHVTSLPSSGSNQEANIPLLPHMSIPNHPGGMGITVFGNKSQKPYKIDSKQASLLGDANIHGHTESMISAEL

In general, IC50 refers to the concentration at which inhibition is half-maximal. The substance KAN0439834 registered an IC50 of less than 100 nM.
